# Test results as given in PubChem BioAssay AID256 (DTP/NCI, 2004).
# Several values for one entry are separate records, joined by “and”; a condition that tells them apart may be missing. Equal entries are not always repeated. Toxic doses and inconclusive results are not listed.
# Test system: CD2F1 mice, L1210 leukemia ip, survival T/C
# Test: NCI In Vivo Anticancer Drug Screen. Data for tumor model L1210 Leukemia (intraperitoneal) in CD2F1 (CDF1) mice
# Settings: higher = longer survival
# Procedure, shortened: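 Vehicle-treated tumor-bearing mice served as controls (C) for compound-treated mice (T). Reported figure is T divided by C.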
# [1] = endpoint: mean survival time, dose: 100.0 mg/kg/injection, schedule: Q04DX003 (ip), vehicle: saline with Tween-80
# [2] = endpoint: mean survival time, dose: 200.0 mg/kg/injection, schedule: Q04DX003 (ip), vehicle: saline with Tween-80
# [3] = endpoint: mean survival time, dose: 400.0 mg/kg/injection, schedule: Q04DX003 (ip), vehicle: saline with Tween-80
# [4] = endpoint: mean survival time, dose: 100.0 mg/kg/injection, schedule: Q01DX009 (ip), vehicle: saline with Tween-80
# [5] = endpoint: mean survival time, dose: 200.0 mg/kg/injection, schedule: Q01DX009 (ip), vehicle: saline with Tween-80
# [6] = endpoint: mean survival time, dose: 400.0 mg/kg/injection, schedule: Q01DX009 (ip), vehicle: saline with Tween-80
structure (smiles),measurement,setting,value
CCOC(=O)C(=Cc1ccc(C=C(C(=O)OCC)C(=O)OCC)cc1)C(=O)OCC,T/C,"endpoint: mean survival time, dose: 50.0 mg/kg/injection, schedule: Q01DX009 (ip), vehicle: Klucel (hydroxypropylcellulose) (HPC)",95 % of control
same,T/C,"endpoint: mean survival time, dose: 100.0 mg/kg/injection, schedule: Q01DX009 (ip), vehicle: Klucel (hydroxypropylcellulose) (HPC)",95 % of control
same,T/C,"endpoint: mean survival time, dose: 200.0 mg/kg/injection, schedule: Q01DX009 (ip), vehicle: Klucel (hydroxypropylcellulose) (HPC)",89 % of control
CCOC(=O)CCC1(CCC(=O)OCC)OCCO1,T/C,[1],93 % of control
same,T/C,"endpoint: mean survival time, dose: 100.0 mg/kg/injection, schedule: Q04DX003 (ip), vehicle: saline",100 % of control
same,T/C,[2],98 % of control
same,T/C,"endpoint: mean survival time, dose: 200.0 mg/kg/injection, schedule: Q04DX003 (ip), vehicle: saline",96 % of control
same,T/C,[3],98 % of control
same,T/C,"endpoint: mean survival time, dose: 400.0 mg/kg/injection, schedule: Q04DX003 (ip), vehicle: saline",100 % of control
CC(=O)c1ccc(O)cc1O,T/C,"endpoint: mean survival time, dose: 100.0 mg/kg/injection, schedule: Q01DX001 (ip), vehicle: saline",102 % of control and 98 % of control
same,T/C,"endpoint: mean survival time, dose: 200.0 mg/kg/injection, schedule: Q01DX001 (ip), vehicle: saline",102 % of control and 98 % of control
same,T/C,"endpoint: mean survival time, dose: 400.0 mg/kg/injection, schedule: Q01DX001 (ip), vehicle: saline",107 % of control and 104 % of control
O=Cc1cc2c(c3ccccc13)CCCC2,T/C,[4],97 % of control
same,T/C,[5],98 % of control
same,T/C,[6],98 % of control
OC(CCCCl)CC(O)(C(F)(F)F)C(F)(F)F (stereo not given),T/C,[4],102 % of control
same,T/C,[1],108 % of control
same,T/C,[5],94 % of control
same,T/C,[2],89 % of control
same,T/C,[6],86 % of control
same,T/C,[3],94 % of control
CNC,T/C,"endpoint: mean survival time, dose: 100.0 mg/kg/injection, schedule: Q04DX002 (ip), vehicle: saline",86 % of control
Cn1c(C(=O)c2ccncc2)cc2ccccc21,T/C,"endpoint: mean survival time, dose: 100.0 mg/kg/injection, schedule: Q01DX001 (ip), vehicle: saline with Tween-80",103 % of control
same,T/C,"endpoint: mean survival time, dose: 100.0 mg/kg/injection, schedule: Q04DX002 (ip), vehicle: saline with Tween-80",100 % of control
same,T/C,"endpoint: mean survival time, dose: 200.0 mg/kg/injection, schedule: Q01DX001 (ip), vehicle: saline with Tween-80",103 % of control
same,T/C,"endpoint: mean survival time, dose: 200.0 mg/kg/injection, schedule: Q04DX002 (ip), vehicle: saline with Tween-80",100 % of control
same,T/C,"endpoint: mean survival time, dose: 400.0 mg/kg/injection, schedule: Q01DX001 (ip), vehicle: saline with Tween-80",103 % of control
same,T/C,"endpoint: mean survival time, dose: 400.0 mg/kg/injection, schedule: Q04DX002 (ip), vehicle: saline with Tween-80",95 % of control
S=C1SCCN1Cc1ccccc1,T/C,[4],104 % of control
same,T/C,[1],106 % of control
same,T/C,[5],101 % of control
same,T/C,[2],101 % of control
same,T/C,[6],104 % of control
same,T/C,[3],101 % of control
O=C(O)CC(NC(=O)CP(=O)(O)O)C(=O)O.[NH-]C1CCCCC1[NH-].[Pt+2] (stereo not given),T/C,"endpoint: mean survival time, dose: 3.12 mg/kg/injection, schedule: Q01DX009 (ip), vehicle: dextrose",238 % of control
same,T/C,"endpoint: mean survival time, dose: 6.25 mg/kg/injection, schedule: Q01DX009 (ip), vehicle: dextrose",274 % of control
same,T/C,"endpoint: mean survival time, dose: 7.9 mg/kg/injection, schedule: Q04DX003 (ip), vehicle: saline",122 % of control
same,T/C,"endpoint: mean survival time, dose: 8.0 mg/kg/injection, schedule: Q04DX003 (ip), vehicle: dextrose",231 % of control
same,T/C,"endpoint: mean survival time, dose: 11.9 mg/kg/injection, schedule: Q04DX003 (ip), vehicle: dextrose",280 % of control
same,T/C,"endpoint: mean survival time, dose: 12.0 mg/kg/injection, schedule: Q04DX003 (ip), vehicle: dextrose",174 % of control
same,T/C,"endpoint: mean survival time, dose: 12.5 mg/kg/injection, schedule: Q01DX009 (ip), vehicle: dextrose",92 % of control
same,T/C,"endpoint: mean survival time, dose: 17.89 mg/kg/injection, schedule: Q04DX003 (ip), vehicle: dextrose",237 % of control
same,T/C,"endpoint: mean survival time, dose: 18.0 mg/kg/injection, schedule: Q04DX003 (ip), vehicle: dextrose",225 % of control
same,T/C,"endpoint: mean survival time, dose: 26.7 mg/kg/injection, schedule: Q04DX003 (ip), vehicle: dextrose",184 % of control
same,T/C,"endpoint: mean survival time, dose: 26.7 mg/kg/injection, schedule: Q04DX003 (ip), vehicle: saline",260 % of control
same,T/C,"endpoint: mean survival time, dose: 40.0 mg/kg/injection, schedule: Q04DX003 (ip), vehicle: dextrose",265 % of control
same,T/C,"endpoint: mean survival time, dose: 40.0 mg/kg/injection, schedule: Q04DX003 (ip), vehicle: saline",298 % of control
same,T/C,"endpoint: mean survival time, dose: 60.0 mg/kg/injection, schedule: Q04DX003 (ip), vehicle: dextrose",194 % of control
same,T/C,"endpoint: mean survival time, dose: 60.0 mg/kg/injection, schedule: Q04DX003 (ip), vehicle: saline",306 % of control
same,T/C,"endpoint: mean survival time, dose: 90.0 mg/kg/injection, schedule: Q04DX003 (ip), vehicle: dextrose",169 % of control
same,T/C,"endpoint: median survival time, dose: 2.0 mg/kg/injection, schedule: Q01DX009 (ip), vehicle: dextrose",209 % of control
same,T/C,"endpoint: median survival time, dose: 4.0 mg/kg/injection, schedule: Q01DX009 (ip), vehicle: dextrose",262 % of control
same,T/C,"endpoint: median survival time, dose: 9.0 mg/kg/injection, schedule: Q01DX009 (ip), vehicle: dextrose",177 % of control
same,T/C,"endpoint: median survival time, dose: 10.0 mg/kg/injection, schedule: Q01DX001 (ip), vehicle: dextrose",182 % of control
same,T/C,"endpoint: median survival time, dose: 15.0 mg/kg/injection, schedule: Q01DX001 (ip), vehicle: other",201 % of control
same,T/C,"endpoint: median survival time, dose: 17.98 mg/kg/injection, schedule: Q04DX003 (ip), vehicle: dextrose",208 % of control
same,T/C,"endpoint: median survival time, dose: 20.0 mg/kg/injection, schedule: Q01DX001 (ip), vehicle: dextrose",206 % of control
same,T/C,"endpoint: median survival time, dose: 27.0 mg/kg/injection, schedule: Q04DX003 (ip), vehicle: dextrose",220 % of control
same,T/C,"endpoint: median survival time, dose: 30.0 mg/kg/injection, schedule: Q01DX001 (ip), vehicle: other",681 % of control
same,T/C,"endpoint: median survival time, dose: 40.0 mg/kg/injection, schedule: Q01DX001 (ip), vehicle: dextrose",188 % of control
